Source: article PMC3753754, “Andrographis paniculata Extract and Andrographolide Modulate the Hepatic Drug Metabolism System and Plasma Tolbutamide Concentrations in Rats” (Evidence-based Complementary and Alternative Medicine : eCAM, 2013)
Marks after values point to notes of the source that are not given here.

Key:
Type in all cases: in vivo
CYP2C = test: Diclofenac 4-hydroxylation in liver microsomes of treated rats; conditions: rat liver microsomes; oral 2 g/kg APE or 50 mg/kg AND daily for 5 days
Description: (§1) Liver was homogenized (1 : 4, w/v) in an ice-cold potassium phosphate buffer (pH 7.4) containing 7.4 mM K2HPO4, 2.6 mM KH2PO4, 1.15% KCl, and 1 mM phenylmethylsulfonyl fluoride (PMSF). Tissue homogenates were centrifuged at 10,000 ×g for 30 min at 4°C. The resulting supernatant was then centrifuged at 105,000 ×g for 1 h at 4°C. The microsomes thus obtained were washed several times to get rid of possible tolbutamide contamination and this can avoid tolbutamide interference of CYP activity, and the microsomes were then suspended in potassium phosphate buffer (pH 7.7) containing 7.5 mM K2HPO4, 14.5 mM KH2PO4, and 1 mM EDTA. […] Metabolites of each CYP enzyme reaction were determined by LC/MS as reported previously. The contents of total CYP and cytochrome b5 were quantified by the method of Omura and Sato [29]. Enzyme activity is expressed as picomoles of metabolite formed per minute per milligram of protein. The NADPH-CYP reductase activity was measured as described by Phillips and Langdon with the use of cytochrome c as the substrate. The microsomal protein concentration was determined by using a Coomassie Plus protein assay kit (Pierce, Rockford, IL, USA).

[1] = target: T1, aryl hydrocarbon receptor (AhR) (Rattus norvegicus, UniProt P41738); test: EMSA of liver nuclear protein binding to XRE consensus sequence; conditions: APE or andrographolide for 5 days
T1 construct: from tissue; host or cells: crude liver nuclear extract of treated Sprague-Dawley rats
T1 sequence (P41738 10-853): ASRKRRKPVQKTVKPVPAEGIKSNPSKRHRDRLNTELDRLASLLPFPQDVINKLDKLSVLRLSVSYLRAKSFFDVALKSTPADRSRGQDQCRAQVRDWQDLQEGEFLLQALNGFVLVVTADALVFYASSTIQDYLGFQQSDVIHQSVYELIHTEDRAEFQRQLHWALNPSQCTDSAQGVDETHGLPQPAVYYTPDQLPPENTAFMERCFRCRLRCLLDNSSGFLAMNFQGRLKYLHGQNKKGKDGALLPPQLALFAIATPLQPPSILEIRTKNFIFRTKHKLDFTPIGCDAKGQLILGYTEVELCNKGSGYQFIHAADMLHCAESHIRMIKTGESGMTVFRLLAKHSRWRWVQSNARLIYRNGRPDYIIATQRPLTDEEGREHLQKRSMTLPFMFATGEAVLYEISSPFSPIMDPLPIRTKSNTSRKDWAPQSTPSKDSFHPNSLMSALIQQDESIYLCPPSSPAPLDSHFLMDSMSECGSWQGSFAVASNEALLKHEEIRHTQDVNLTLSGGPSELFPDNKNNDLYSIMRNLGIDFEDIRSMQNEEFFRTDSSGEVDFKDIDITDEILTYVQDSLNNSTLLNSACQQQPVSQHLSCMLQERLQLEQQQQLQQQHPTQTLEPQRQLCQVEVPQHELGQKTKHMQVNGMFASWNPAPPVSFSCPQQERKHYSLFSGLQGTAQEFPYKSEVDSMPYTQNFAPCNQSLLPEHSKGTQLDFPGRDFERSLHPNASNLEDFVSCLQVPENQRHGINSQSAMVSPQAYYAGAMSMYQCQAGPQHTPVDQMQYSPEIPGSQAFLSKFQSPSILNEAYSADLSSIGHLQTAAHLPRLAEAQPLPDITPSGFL
T1 sequence (P41739 whole entry partner): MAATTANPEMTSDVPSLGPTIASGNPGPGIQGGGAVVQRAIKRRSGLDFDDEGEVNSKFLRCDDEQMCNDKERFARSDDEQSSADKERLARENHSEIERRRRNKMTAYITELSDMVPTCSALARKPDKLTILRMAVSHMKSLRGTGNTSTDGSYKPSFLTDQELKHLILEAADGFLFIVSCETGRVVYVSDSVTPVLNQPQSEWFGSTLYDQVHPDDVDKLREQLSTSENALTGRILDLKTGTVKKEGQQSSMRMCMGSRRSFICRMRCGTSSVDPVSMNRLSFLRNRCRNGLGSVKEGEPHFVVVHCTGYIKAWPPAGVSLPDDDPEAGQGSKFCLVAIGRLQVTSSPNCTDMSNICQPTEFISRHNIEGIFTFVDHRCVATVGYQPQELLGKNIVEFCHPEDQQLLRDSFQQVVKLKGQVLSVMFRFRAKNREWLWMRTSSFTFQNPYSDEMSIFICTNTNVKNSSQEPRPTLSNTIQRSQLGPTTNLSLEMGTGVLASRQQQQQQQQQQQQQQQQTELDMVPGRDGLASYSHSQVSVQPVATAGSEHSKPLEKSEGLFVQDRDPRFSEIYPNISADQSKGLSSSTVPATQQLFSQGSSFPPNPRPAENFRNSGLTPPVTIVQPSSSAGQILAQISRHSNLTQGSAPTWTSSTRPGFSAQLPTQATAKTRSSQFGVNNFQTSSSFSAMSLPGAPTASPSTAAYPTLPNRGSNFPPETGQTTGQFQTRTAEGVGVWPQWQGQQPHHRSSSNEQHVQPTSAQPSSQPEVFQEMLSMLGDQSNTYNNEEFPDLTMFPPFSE
Description: Nuclear proteins of liver tissues were extracted as described by Tian et al. with some modifications. Briefly, 0.1 g of liver was homogenized (1 : 9, w/v) with 0.9 mL of ice-cold 10 mM HEPES buffer (pH 7.9) containing 10 mM KCl, 1 mM MgCl2, 0.1 mM EDTA, 0.5 mM dithiothreitol, 0.5 mM PMSF, 4 μg/mL leupeptin, and 20 μg/mL aprotinin. The homogenates were placed in an ice bath for 15 min and then centrifuged at 600 ×g for 10 min. Then, 100 μL of 10% Nonidet P-40 was added to the supernatant, and the samples were allowed to sit in an ice bath for 10 min. The supernatant was centrifuged at 5,000 ×g for 5 min. The pellet, containing crude nuclei, was resuspended in 100 μL of hypertonic buffer containing 10 mM HEPES, 400 mM KCl, 1 mM MgCl2, 0.1 mM EDTA, 0.5 mM dithiothreitol, 4 μg/mL leupeptin, 20 μg/mL aprotinin, 25% glycerol, and 0.5 mM PMSF at 4°C for 45 min. Nuclear proteins were then collected by centrifugation at 12,000 ×g for 15 min.
EMSA was performed according to the method reported previously. The LightShift Chemiluminescent EMSA Kit (Pierce, Rockford, IL) and synthetic biotin-labeled double-stranded consensus oligonucleotides of DR4 (5′-[…]-3′) and xenobiotic response element (XRE) (forward: 5′-[…]-3′) were used to measure pregnane X receptor (PXR) and aryl hydrocarbon receptor (AhR) nuclear protein-DNA-binding activity. […]

Cytochrome b5 = Cytochrome b5 content in liver microsomes of treated rats; conditions: rat liver microsomes; oral 2 g/kg APE or 50 mg/kg AND daily for 5 days
Description: as §1

CYP3A = test: Testosterone 6β-hydroxylation in liver microsomes of treated rats; conditions: rat liver microsomes; oral 2 g/kg APE or 50 mg/kg AND daily for 5 days
Description: as §1

CYP1A1 = test: Ethoxyresorufin O-deethylation in liver microsomes of treated rats; conditions: rat liver microsomes; oral 2 g/kg APE or 50 mg/kg AND daily for 5 days
Description: as §1

[2] = system: UDP-glucuronosyltransferase; test: Microsomal UGT activity (p-nitrophenol substrate) in liver of treated rats; conditions: rat liver; oral 2 g/kg APE or 50 mg/kg AND daily for 5 days
Description: The microsomal UGT activity was determined by using p-nitrophenol as the substrate. The rate of formation of p-nitrophenol glucuronic acid was measured by HPLC/UV [31]. GST activity was determined spectrophotometrically by measuring the formation rate of GSH conjugates.

CYP2E1 = test: Immunoblot and RT-PCR of hepatic CYP2E1 in treated rats; conditions: rat liver; APE or andrographolide for 5 days
Description: Aliquots of microsomal protein (10 μg) were electrophoresed in an SDS-polyacrylamide gel, and proteins were then transferred to polyvinylidene fluoride membranes. After blocking, membranes were hybridized with antibodies to CYP1A1, CYP1A2, CYP2C6, CYP2C11, CYP2D1, CYP2E1, CYP3A1, and CYP3A2.
Total RNA in liver samples was extracted by using the Trizol reagent (1 : 20, w/v). […] The sequences for the PCR primers were as follows: for CYP1A1 (forward: 5′-[…]-3′; reverse: 5′-[…]-3′), CYP1A2 (forward: 5′-[…]-3′; reverse: 5′-[…]-3′), CYP2C6 (forward: 5′-[…]-3′; reverse: 5′-[…]-3′), CYP2C11 (forward: 5′-[…]-3′; reverse: 5′-[…]-3′), CYP2D1 (forward: 5′-[…]-3′; reverse: 5′-[…]-3′), CYP2E1 (forward: 5′-[…]-3′; reverse: 5′-[…]-3′), CYP3A1 (forward: 5′-[…]-3′; reverse: 5′-[…]-3′), CYP3A2 (forward: 5′-[…]-3′; reverse: 5′-[…]-3′), and P-glycoprotein (forward: 5′-[…]-3′; reverse: 5′-[…]-3′). The PCR for CYP1A1 was performed as follows: 5 min at 95°C and then 35 cycles of 30 s at 94°C, 30 s at 54°C, and 60 s at 72°C. […] The PCR amplicons were then electrophoresed in 1% agarose gels containing 40 mM Tris/20 mM glacial acetic acid/2 mM EDTA buffer, and the relative densities of the PCR products were quantitated by use of Image Gauge software (Fujifilm, Tokyo, Japan). […]

Diclofenac 4-hydroxylase (2C) (CYP2C): 43.8 ± 10.5^b pmol/min/mg protein | Binding activity of the XRE consensus sequence to nuclear protein AhR [1]: enhanced | Cytochrome b5 content (Cytochrome b5): 327 ± 79 pmol/mg protein | Testosterone 6β-hydroxylase (3A) (CYP3A): 1195 ± 284^b pmol/min/mg protein | Ethoxyresorufin O-deethylase (1A1) (CYP1A1): 66.6 ± 13.5^b pmol/min/mg protein | UDP-glucuronosyltransferase activity [2]: 21.1 ± 6.5^a nmol/min/mg protein | CYP2E1 protein or mRNA levels compared with controls (CYP2E1): no changes
Compound: C=C1CC[C@@H]2[C@](C)(CO)[C@H](O)CC[C@@]2(C)[C@@H]1C/C=C1/C(=O)OC[C@H]1O [andrographolide, Andrographolide]
